Assay results as given in US20240294529A1, “6H-IMIDAZO[1,2-A]PYRROLO[2,3-E]PYRIDINE DERIVATIVES FOR USE IN THERAPY” (SANOFI, priority 2021, published 2024).

Experiments:
[1] = target: T1, hNur77 (Homo sapiens, UniProt P22736); experiment: Activity on HEK-Nur77 modulation (Gal4-DBD luciferase reporter in stable HEK293 cells); type: cell-based; settings: 24 hours with compound
T1 construct: The pFR-Luc (Gal4 UAS luciferase) reporter sits in the same cells, and expression is induced by doxycycline
T1 sequence (P22736 360-598 limits assumed): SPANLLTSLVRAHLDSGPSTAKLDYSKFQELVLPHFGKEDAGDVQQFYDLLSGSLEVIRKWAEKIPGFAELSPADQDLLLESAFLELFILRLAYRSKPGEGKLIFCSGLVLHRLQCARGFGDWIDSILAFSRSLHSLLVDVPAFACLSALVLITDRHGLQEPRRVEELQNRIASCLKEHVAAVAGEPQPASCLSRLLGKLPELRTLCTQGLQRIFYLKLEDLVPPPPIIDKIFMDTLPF
Protocol: Stable HEK293 cells expressing Gal4-DBD-FL-NOT, -hNur77, -hNOR1 and Pfr-Luc were obtained by limit dilution. HEK cells were grown in 75 cm^2 flask in DMEM high glucose 30-2002™ containing 10% calf serum, hygromycin at a content of 250 μg/ml, doxycyclin at a content of 2 μg/ml (to induce expression) and 0.4 mg/ml of penicillin. After one week in culture, cells were harvested by trypsinization then plated onto 96 well dishes at the density of 20,000 cell per well in 75 μl of culture medium. After 24 hours compounds were added (25 μl per well) at different concentration for further 24 hours. The medium was removed and measurement was performed by adding 50 μl of Steadyglo (Promega, E2510) with 50 μl PBS per well for 15 minutes and plates were read using microplate luminescent reader.

[2] = target: T2, Nurr1 (Mus musculus, UniProt Q06219); experiment: Activity on neuroblastomas cell lines - Nurr1 modulation (N2A cells, NBRE8x luciferase reporter); type: cell-based; settings: N2A cells stably transfected with NBRE8x-luciferase, 24 hours with compound; read-out: EC50 activity, Nurr1 modulation in N2A neuroblastoma cells
T2 construct: N2A cells obtained from ATCC were stably transfected with NBRE8x (50-AAGGTCA-30) in tandem coupled with luciferase reporter gene; host or cells: N2A neuroblastoma cells
T2 sequence (Q06219 whole entry): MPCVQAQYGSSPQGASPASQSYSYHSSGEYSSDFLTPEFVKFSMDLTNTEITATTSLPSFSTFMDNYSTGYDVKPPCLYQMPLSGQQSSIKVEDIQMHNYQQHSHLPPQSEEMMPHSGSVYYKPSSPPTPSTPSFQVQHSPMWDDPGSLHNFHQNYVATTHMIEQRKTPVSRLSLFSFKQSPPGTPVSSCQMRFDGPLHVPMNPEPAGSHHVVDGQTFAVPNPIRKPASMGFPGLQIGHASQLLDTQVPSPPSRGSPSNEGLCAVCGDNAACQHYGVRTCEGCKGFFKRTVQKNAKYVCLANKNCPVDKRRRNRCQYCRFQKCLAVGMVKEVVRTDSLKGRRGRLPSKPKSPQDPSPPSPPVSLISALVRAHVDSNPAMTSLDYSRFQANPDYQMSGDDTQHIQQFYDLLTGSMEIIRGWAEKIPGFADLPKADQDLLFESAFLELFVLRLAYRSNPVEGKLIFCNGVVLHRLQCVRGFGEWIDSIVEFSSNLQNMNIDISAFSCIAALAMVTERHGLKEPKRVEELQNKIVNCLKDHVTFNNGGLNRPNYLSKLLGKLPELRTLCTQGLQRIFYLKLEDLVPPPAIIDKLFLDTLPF
Protocol: N2A cells obtained from ATCC were stably transfected with NBRE8x (50-AAGGTCA-30) in tandem coupled with luciferase reporter gene. Each NBRE sequence was separated with 5 nucleotides. N2A were grown in 75 cm^2 flask in DMEM containing 10% calf serum, 4.5 g/L glucose and 0.4 mg/ml geneticin. After one week in culture cells were harvested by trypsinization (0.25%, 30 minutes) then plated onto 96 well dishes at the density of 60,000 cell per well in 75 μl of DMEM without phenol red containing 4.5 g/l glucose, 10% lipid free serum from Hyclone. After 24 hours compounds were added (25 μl/well) at different concentration for further 24 hours. Measurement is performed by adding 100 μl of Steadylite per well for 30 minutes and plates are read using microplate […] reader.

Row | Compound | IC50 [1] | EC50 [2] | melting point
1 | Clc1ccc(-c2cn3c(ccc4[nH]ccc43)n2)cc1 [compound of formula (2), 2-(4-Chlorophenyl)-6H-imidazo[1,2-a]pyrrolo[2,3-e]pyridine] | 300 nM | 0.03 nM | –
2 | Clc1ccc(-c2nc3ccc4[nH]ccc4n3c2Cl)cc1 [compound of formula (1), 1-Chloro-2-(4-chlorophenyl)-6H-imidazo[1,2-a]pyrrolo[2,3-e]pyridine] | 10000 nM | 0.2 nM | 252 °C
